The structures appear in SMILES notation. pIC50: −log10 of the molar value.

This assay addresses Integrin alpha-V/beta-3 (Homo sapiens). Put plainly: Inhibition of human Integrin alphaVbeta3 isolated receptors assessed by standard competitive binding assay.

With `NCCOCCOCCOCCOCCOCCOCC(=O)Nc1cc(C[C@H](NS(=O)(=O)c2cccc(C(F)(F)F)c2)C(=O)O)ccc1OCCCc1ccc2c(n1)NCCC2`, the pIC50 (as a rule, −log10 of the IC50, conventionally taken in molar units) is 9.15.

For the compound `Nc1cc(C[C@H](NS(=O)(=O)c2cccc(C(F)(F)F)c2)C(=O)O)ccc1OCCCc1ccc2c(n1)NCCC2`, the pIC50 was 10.00.

With `COCCOCCOCCOCC(=O)Nc1cc(C[C@H](NS(=O)(=O)c2cccc(C(F)(F)F)c2)C(=O)O)ccc1OCCCc1ccc2c(n1)NCCC2`, the negative logarithm of the IC50 (pIC50) is 9.52.

The record behind these values is ChEMBL document CHEMBL1155409, “Ultrasmall particle of iron oxide--RGD peptidomimetic conjugate: synthesis and characterisation” (Bioorg Med Chem Lett, 2010).
